In paper PMC4311625, “Structural determinants for binding to angiotensin converting enzyme 2 (ACE2) and angiotensin receptors 1 and 2” (Frontiers in Pharmacology, 2015):
Like-named read-outs stand apart in the source and are kept apart here. Each block holds one compound with its values, some of them ahead of it. Ends that are not written are not given here. Peptide text beside a SMILES is read from it.

How the values were obtained:
[1] = target: T1, ACE2 (Homo sapiens, UniProt Q9BYF1); experiment: ACE2 quenched fluorescence substrate (QFS) inhibition assay; format: biochemical; conditions: for inhibition at 0.1 µM: peptide 0.1 μM, read-out: Inhibition (%) of ACE2, AngII chimeras, 0.1 μM; for inhibition at 1 µM: read-out: Inhibition (%) of ACE2, AngII chimeras, 1 μM
Protocol: Angiotensin converting enzyme 2 QFS assays were performed for 1 h in 50 uM QFS, 1 M NaCl, 100 mM Tris-Cl, pH 6.5 at 37∘C on a BMG LabTechnologies (Offenburg, Germany), FLUOStar Optima in a 96 well-plate. Subsequent data analysis determined the inhibition of native AngII, its analogs and C-terminal peptides compared to the ACE2 QFS substrate [MCA-APK(DNP)-OH, [Vickers et al., 2002]]. […] Three controls were included in each ACE2 QFS assay; AngII (100 and 10 μM), IHPF (100 μM) and a known ACE2 inhibitor (1 nM; Millennium Pharmaceuticals, Cambridge, MA, USA). QFS assay results were accepted when ACE2 inhibition by AngII (10 μM) was 80 ± 5%, IHPF was 65 ± –5% and the ([Qian et al., 1999]) ‘Millennium Inhibitor’ was 70 ± –5%. Acceptable coefficients of variation (CV; standard deviation/mean × 100) for sample triplicates were <7%.
A library of 40 tetrapeptides based on the four C-terminal residues of Ang II (Ile-His-Pro-Phe/IHPF) was generated and screened for ACE2 binding at 100 μM in order to identify key residues of the C-terminus of Ang II involved in binding to the ACE2 active site. […] Several substitutions (Val, Tyr, Ala, Gly, Phe, Trp, Pro, His, Ile, and Leu) were made in order to further probe the highly hydrophobic and cyclic specificity of the C-terminus of Ang II. A β-napthalene amino acid (Nth) derivative was used as a highly hydrophobic non-natural cyclic residue substitute, and Arg and Lys were substituted for histidine at the second position from the N-terminus of the tetrapeptide to determine if positive charge or other structural or positional requirements were important.

[2] = target: T1, ACE2; experiment: LC–MS ACE2 proteolytic cleavage assay; format: in vitro ADME; conditions: LC–MS; for Cleavage (%) by ACE2, 10 μM: peptide 10 μM incubated with ACE2 at 37 °C; for Cleavage (%) by ACE2, 10 μM / Cleavage (%) by ACE2, 100 μM: typically 4-5 h (5 h); for Cleavage (%) by ACE2, 100 μM: peptide 100 μM incubated with ACE2 at 37 °C; for Cleavage (%) by ACE2, 1 μM: peptide 1 μM incubated with ACE2 at 37 °C, typically 4-5 h
Protocol: The first hour of the incubation was performed in the Fluorostar Optima plate reader in order to confirm previously observed level of inhibition, then for the remaining time the samples were transferred to small microfuge tubes and incubated in a water bath. The extent of ACE2 cleavage was assessed by LC–MS on an Agilent capillary HP1100, MSD VL3000 Ion-Trap system.

[3] = target: T2, AT1R (Rattus norvegicus, UniProt P25095); experiment: Whole cell competition binding with [125I]-Ang II, AT1R-transfected HEK-293 cells; conditions: relative binding, displacement of 125I-Ang II in AT1R-transfected HEK-293 cells; 100 nM (Table 6)
T2 construct: HA; expressed in transfected cells
T2 sequence (P25095 1-359): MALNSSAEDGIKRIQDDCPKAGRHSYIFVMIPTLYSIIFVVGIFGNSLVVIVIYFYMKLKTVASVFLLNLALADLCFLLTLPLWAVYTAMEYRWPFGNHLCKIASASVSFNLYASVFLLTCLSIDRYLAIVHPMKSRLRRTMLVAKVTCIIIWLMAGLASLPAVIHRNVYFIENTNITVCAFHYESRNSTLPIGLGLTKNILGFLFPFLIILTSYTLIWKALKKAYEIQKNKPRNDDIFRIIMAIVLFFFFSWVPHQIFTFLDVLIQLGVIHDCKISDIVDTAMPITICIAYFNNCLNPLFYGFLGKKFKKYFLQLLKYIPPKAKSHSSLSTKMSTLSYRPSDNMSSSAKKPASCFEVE
Protocol: The generation of plasmids expressing HA-tagged versions of the AT1R and AT2R have been previously described [Qian et al. (1999)], [D’Amore et al. (2005)]. HEK-293 cells in 12 well-plates were transfected with either AT1R or AT2R plasmids (0.6 μg/well) using lipofectAMINE (4⋅8 μl/well), as previously described [Thomas et al. (1998)] and stably expressing clones obtained by selection with G418 (1 mg/ml) and limiting dilution.

[4] = system: AT2R; experiment: Whole cell competition binding with [125I]-Ang II, AT2R-transfected HEK-293 cells; conditions: relative binding, displacement of 125I-Ang II in AT2R-transfected HEK-293 cells; 100 nM (Table 6)
Protocol: The generation of plasmids expressing HA-tagged versions of the AT1R and AT2R have been previously described [Qian et al. (1999)], [D’Amore et al. (2005)]. HEK-293 cells in 12 well-plates were transfected with either AT1R or AT2R plasmids (0.6 μg/well) using lipofectAMINE (4⋅8 μl/well), as previously described [Thomas et al. (1998)] and stably expressing clones obtained by selection with G418 (1 mg/ml) and limiting dilution. HEK clones expressing either AT1R or AT2R were plated in 12 well-plates for whole cell competition binding assays using the non-selective Ang II ligand, [^125I]-Ang II and selected concentrations of Ang II, PD123319 (an AT2-selective ligand) and the various β-substituted Ang II peptides. Non-linear regression of the data was achieved using GraphPad Prism (GraphPad Software Inc., San Diego, CA, USA) to determine relative displacement of chimeric Ang II analogs as compared to ^125I-Ang II in either AT1R- or AT2R- transfected HEK-293 cells.

[5] = peptide 1 μM, QFS assay, pH 6.5, 37 °C, 1 h, value ± spread
[6] = QFS assay, pH 6.5, 37 °C, 1 h, value ± spread
[7] = peptide 10 μM, QFS assay, pH 6.5, 37 °C, 1 h, value ± spread, read-out: Inhibition (%) of ACE2, AngII chimeras, 10 μM
[8] = read-out: ACE2 inhibition of terminally modified IHPF analogs, 100 μM (Table 3), peptide 100 μM, 50 uM QFS, 1 M NaCl, 100 mM Tris-Cl pH 6.5, 37 °C, 1 h
[9] = peptide 100 μM, 50 uM QFS MCA-APK(DNP)-OH, 1 M NaCl, 100 mM Tris-Cl pH 6.5, 37 °C, 1 h, fluorescence, triplicate, read-out: ACE2 inhibition of single substitution analogs of the C-terminal of AngII (Table 1)

T1 sequence (Q9BYF1 18-805, species assumed): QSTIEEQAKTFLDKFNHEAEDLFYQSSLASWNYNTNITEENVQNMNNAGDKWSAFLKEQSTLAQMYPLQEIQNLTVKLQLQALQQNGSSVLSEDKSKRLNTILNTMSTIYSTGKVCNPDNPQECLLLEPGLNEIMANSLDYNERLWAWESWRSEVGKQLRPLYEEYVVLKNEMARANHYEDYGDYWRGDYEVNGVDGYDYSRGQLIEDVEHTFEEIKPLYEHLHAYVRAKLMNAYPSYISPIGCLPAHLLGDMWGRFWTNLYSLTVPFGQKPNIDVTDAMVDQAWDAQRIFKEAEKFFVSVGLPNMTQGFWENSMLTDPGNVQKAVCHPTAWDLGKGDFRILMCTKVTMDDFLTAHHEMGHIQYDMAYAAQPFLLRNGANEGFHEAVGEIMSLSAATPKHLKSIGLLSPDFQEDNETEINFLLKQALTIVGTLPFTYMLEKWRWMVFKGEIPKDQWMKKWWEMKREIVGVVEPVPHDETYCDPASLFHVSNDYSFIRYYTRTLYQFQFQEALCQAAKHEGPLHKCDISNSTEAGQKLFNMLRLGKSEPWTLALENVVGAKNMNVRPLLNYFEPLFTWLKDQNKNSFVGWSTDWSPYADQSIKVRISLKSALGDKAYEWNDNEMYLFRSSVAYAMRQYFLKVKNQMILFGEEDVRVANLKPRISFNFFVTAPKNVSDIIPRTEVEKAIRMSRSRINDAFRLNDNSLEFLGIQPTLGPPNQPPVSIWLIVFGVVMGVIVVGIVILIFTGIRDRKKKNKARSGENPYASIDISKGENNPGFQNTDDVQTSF

Compound: DRVYIYPβF
- Inhibition (%) of ACE2, AngII chimeras, 1 μM [1, 5]: –1 ± 6.8%
- Inhibition (%) of ACE2, AngII chimeras, 10 μM ([1]; peptide 10 μM, QFS assay, pH 6.5, 37 °C, 1 h, value ± spread): completely abolished
- Inhibition (%) of ACE2, AngII chimeras, 10 μM ([1]; peptide 10 μM, QFS assay, pH 6.5, 37 °C, 1 h, value ± spread, listed as DRVYI YPβF): 0 ± 5%
- Inhibition (%) of ACE2, AngII chimeras, 100 μM ([1]; peptide 100 μM, QFS assay, pH 6.5, 37 °C, 1 h, value ± spread): 53 ± 1.9%
- Cleavage (%) by ACE2, 10 μM [2]: 0 ± 0%
- Cleavage (%) by ACE2, 100 μM [2]: complete resistance to proteolytic cleavage
- Cleavage (%) by ACE2, 100 μM ([2]; listed as DRVYI YPβF): 0 ± 0%
- AT1R binding (%) [3]: 30%
- AT2R binding (%) [4]: 25%

Compound: CC[C@H](C)[C@H](NC(=O)[C@H](Cc1ccc(O)cc1)NC(=O)[C@@H](NC(=O)[C@H](CCCNC(=N)N)NC(=O)[C@@H](N)CC(=O)O)C(C)C)C(=O)N[C@@H](Cc1cnc[nH]1)C(=O)N1CCC[C@H]1C(=O)N[C@@H](Cc1ccccc1)C(=O)O [Angiotensin II, reference compound]
- inhibition at 0.1 µM [1, 6]: -5%
- inhibition at 1 µM [1, 5]: 21 ± 6.8%
- inhibition at 10 µM [1, 7]: 77 ± 2.9%
- inhibition at 100 µM ([1]; peptide 100 μM, 50 uM QFS, 1 M NaCl, 100 mM Tris-Cl pH 6.5, 37 °C, 1 h, triplicate, read-out: Inhibition (%) of ACE2, single and multiple residue substitution analogs (Table 2)): 97%
- inhibition at 100 µM ([1]; peptide 100 μM, QFS assay, pH 6.5, 37 °C, 1 h, value ± spread, read-out: Inhibition (%) of ACE2, AngII chimeras, 100 μM): 99 ± 0.3%
- inhibition at 10 µM ([1]; read-out: ACE2 inhibition by control, acceptance window of QFS assay): 80 ± 5%
- Cleavage (%) by ACE2, 1 μM [2]: 93%
- Cleavage (%) by ACE2, 10 μM ([2]; listed as D1R2V3Y4I5H6P7F8): 40 ± 2%
- Cleavage (%) by ACE2, 10 μM ([2]; listed as native Ang II): 40%

Compound: DRVYIYPF
- inhibition at 0.1 µM [1, 6]: 17%
- inhibition at 1 µM [1, 5]: 78 ± 2%
- inhibition at 10 µM [1, 7]: 96%
- Cleavage (%) by ACE2, 1 μM [2]: 85%
- Cleavage (%) by ACE2, 10 μM [2]: 18 ± 1.2%

Compound: CC[C@H](C)[C@H](N)C(=O)NCC(=O)N1CCC[C@H]1C(=O)N[C@@H](Cc1ccccc1)C(=O)O [IGPF] (H-IGPF-OH)
- inhibition at 100 µM [1, 9]: 39%

Compound: CC(C)[C@H](N)C(=O)N[C@@H](Cc1ccc(O)cc1)C(=O)N1CCC[C@H]1C(=O)N[C@@H](Cc1ccccc1)C(N)=O [C-amidated VYPF] (H-VYPF-NH2)
- inhibition at 100 µM ([1]; pH 6.5, read-out: ACE2 inhibition of terminally modified IHPF analogs, 100 μM (Table 3)): 25%

Compound: NC(=O)[C@H](Cc1ccccc1)NC(=O)[C@@H]1CCCN1C(=O)[C@H](Cc1c[nH]cn1)NC(=O)[C@@H]1CCCN1 [C-amidated PHPF] (H-PHPF-NH2)
- inhibition at 100 µM [1, 8]: 1%

Continued, values first:

- inhibition at 10 µM ([1]; read-out: ACE2 inhibition of terminally modified IHPF analogs, 10 μM (Table 3, in brackets), peptide 10 μM, 50 uM QFS, 1 M NaCl, 100 mM Tris-Cl pH 6.5, 37 °C, 1 h): 41%
- inhibition at 100 µM [1, 8]: 87%
Compound: CC[C@H](C)[C@H](NC(C)=O)C(=O)N[C@@H](Cc1c[nH]cn1)C(=O)N1CCC[C@H]1C(=O)N[C@@H](Cc1ccccc1)C(=O)O [N-acetylated IHPF] (Ac-IHPF-OH)

- inhibition at 100 µM [1, 9]: 0%
Compound: N[C@@H](Cc1c[nH]c2ccccc12)C(=O)N[C@@H](Cc1c[nH]cn1)C(=O)N1CCC[C@H]1C(=O)N[C@@H](Cc1ccccc1)C(=O)O [WHPF] (H-WHPF-OH)

- inhibition at 100 µM [1, 9]: 0%
Compound: CC[C@H](C)[C@H](N)C(=O)N1CCC[C@H]1C(=O)N1CCC[C@H]1C(=O)N[C@@H](Cc1ccccc1)C(=O)O [IPPF] (H-IPPF-OH)
